Source: the kinase profiling compilation of Christmann-Franck et al. (2016)
“And” between values parts separate entries of the source, which are not always exact repeats. Equal values may be shown once.

What was measured:
Experiment in all cases: radiometric filter-binding kinase assay, Kinase HotSpot
Details in all cases: compound 0.5 µM; ATP 10 µM
KIT (human) = KIT (human) (UniProt P10721)
ERBB4 (human) = ERBB4 (human) (UniProt Q15303)
EPHA4 (human) = EPHA4 (human) (UniProt P54764)
SGK2 (human) = SGK2 (human) (UniProt Q9HBY8)
MAPKAPK2 (human) = MAPKAPK2 (human) (UniProt P49137)
MAPK3 (human) = MAPK3 (human) (UniProt P27361)
MAP3K10 (human) = MAP3K10 (human) (UniProt Q02779)
PAK4 (human) = PAK4 (human) (UniProt O96013)
PIM1 (human) = PIM1 (human) (UniProt P11309)
IKBKE (human) = IKBKE (human) (UniProt Q14164)
HIPK4 (human) = HIPK4 (human) (UniProt Q8NE63)
TEK (human) = TEK (human) (UniProt Q02763)
TAOK3 (human) = TAOK3 (human) (UniProt Q9H2K8)
WNK3 (human) = WNK3 (human) (UniProt Q9BYP7)
MELK (human) = MELK (human) (UniProt Q14680)
PRKG1 (human) = PRKG1 (human) (UniProt Q13976)
CDK3 CCNE1 (human) = CDK3 CCNE1 (human) (UniProt Q00526+P24864)
STK10 (human) = STK10 (human) (UniProt O94804)
PAK6 (human) = PAK6 (human) (UniProt Q9NQU5)
CDK6 CCND1 (human) = CDK6 CCND1 (human) (UniProt Q00534+P24385)
NUAK2 (human) = NUAK2 (human) (UniProt Q9H093)
CSNK1A1 (human) = CSNK1A1 (human) (UniProt P48729)
PRKACG (human) = PRKACG (human) (UniProt P22612)
NUAK1 (human) = NUAK1 (human) (UniProt O60285)
STK39 (human) = STK39 (human) (UniProt Q9UEW8)
STK25 (human) = STK25 (human) (UniProt O00506)
PRKD2 (human) = PRKD2 (human) (UniProt Q9BZL6)
AXL (human) = AXL (human) (UniProt P30530)
BRAF (human) = BRAF (human) (UniProt P15056)
CSNK2A2 (human) = CSNK2A2 (human) (UniProt P19784)
AURKB (human) = AURKB (human) (UniProt Q96GD4)
RPS6KA3 KD1 KD2 (human) = RPS6KA3 KD1 KD2 (human) (UniProt P51812)
MST1R (human) = MST1R (human) (UniProt Q04912)
TSSK2 (human) = TSSK2 (human) (UniProt Q96PF2)
CAMKK1 (human) = CAMKK1 (human) (UniProt Q8N5S9)
SRPK2 (human) = SRPK2 (human) (UniProt P78362)
MAP3K9 (human) = MAP3K9 (human) (UniProt P80192)
AKT2 (human) = AKT2 (human) (UniProt P31751)
CLK2 (human) = CLK2 (human) (UniProt P49760)
MAPK11 (human) = MAPK11 (human) (UniProt Q15759)
LRRK2 (human) = LRRK2 (human) (UniProt Q5S007)

MELK (human), sequence (Q14680 whole entry, looked up): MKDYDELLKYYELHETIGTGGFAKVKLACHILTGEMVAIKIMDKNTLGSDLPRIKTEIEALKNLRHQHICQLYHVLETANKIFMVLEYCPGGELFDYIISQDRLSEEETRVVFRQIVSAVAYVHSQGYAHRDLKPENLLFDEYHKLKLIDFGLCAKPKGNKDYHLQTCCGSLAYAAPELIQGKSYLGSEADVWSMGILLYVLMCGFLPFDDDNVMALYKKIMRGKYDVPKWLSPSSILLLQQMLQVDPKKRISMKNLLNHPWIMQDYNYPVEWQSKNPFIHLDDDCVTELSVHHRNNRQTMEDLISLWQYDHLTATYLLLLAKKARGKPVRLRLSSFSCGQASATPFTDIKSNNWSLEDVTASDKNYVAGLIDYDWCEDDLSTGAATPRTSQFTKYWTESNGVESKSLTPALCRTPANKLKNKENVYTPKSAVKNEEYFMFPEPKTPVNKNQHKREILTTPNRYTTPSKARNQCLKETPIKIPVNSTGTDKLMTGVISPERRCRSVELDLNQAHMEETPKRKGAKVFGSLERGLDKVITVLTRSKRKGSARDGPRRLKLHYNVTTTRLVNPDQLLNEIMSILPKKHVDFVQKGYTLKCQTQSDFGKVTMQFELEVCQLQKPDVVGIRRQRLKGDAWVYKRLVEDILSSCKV
PRKACG (human), sequence (P22612 whole entry, looked up): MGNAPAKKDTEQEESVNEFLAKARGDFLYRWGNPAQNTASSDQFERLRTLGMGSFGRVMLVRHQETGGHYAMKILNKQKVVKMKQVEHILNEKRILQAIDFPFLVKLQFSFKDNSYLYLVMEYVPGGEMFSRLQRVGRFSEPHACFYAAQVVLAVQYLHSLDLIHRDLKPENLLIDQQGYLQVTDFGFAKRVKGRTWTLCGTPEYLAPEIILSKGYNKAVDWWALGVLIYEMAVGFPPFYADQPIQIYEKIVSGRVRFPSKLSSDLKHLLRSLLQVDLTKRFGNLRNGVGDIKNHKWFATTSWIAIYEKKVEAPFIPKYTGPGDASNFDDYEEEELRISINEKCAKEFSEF
PAK6 (human), sequence (Q9NQU5 whole entry, looked up): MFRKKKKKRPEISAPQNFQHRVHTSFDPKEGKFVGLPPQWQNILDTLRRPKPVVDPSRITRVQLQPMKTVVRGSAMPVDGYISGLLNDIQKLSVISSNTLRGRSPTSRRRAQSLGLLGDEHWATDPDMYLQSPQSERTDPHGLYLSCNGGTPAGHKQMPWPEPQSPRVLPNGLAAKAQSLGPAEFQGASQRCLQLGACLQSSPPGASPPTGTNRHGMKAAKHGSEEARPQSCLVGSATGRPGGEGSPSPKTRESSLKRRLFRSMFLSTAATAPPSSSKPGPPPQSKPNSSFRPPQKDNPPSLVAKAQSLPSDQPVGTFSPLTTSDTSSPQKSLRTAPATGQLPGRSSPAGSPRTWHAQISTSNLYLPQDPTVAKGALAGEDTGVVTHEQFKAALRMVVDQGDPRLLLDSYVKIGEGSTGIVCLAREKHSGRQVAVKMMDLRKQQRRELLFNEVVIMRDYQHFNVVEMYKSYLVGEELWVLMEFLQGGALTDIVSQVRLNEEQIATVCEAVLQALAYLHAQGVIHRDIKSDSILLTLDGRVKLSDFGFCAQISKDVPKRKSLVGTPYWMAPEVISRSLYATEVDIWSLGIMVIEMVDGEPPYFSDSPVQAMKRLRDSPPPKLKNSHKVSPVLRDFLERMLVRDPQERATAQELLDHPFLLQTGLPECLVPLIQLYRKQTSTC
PRKD2 (human), sequence (Q9BZL6 whole entry, looked up): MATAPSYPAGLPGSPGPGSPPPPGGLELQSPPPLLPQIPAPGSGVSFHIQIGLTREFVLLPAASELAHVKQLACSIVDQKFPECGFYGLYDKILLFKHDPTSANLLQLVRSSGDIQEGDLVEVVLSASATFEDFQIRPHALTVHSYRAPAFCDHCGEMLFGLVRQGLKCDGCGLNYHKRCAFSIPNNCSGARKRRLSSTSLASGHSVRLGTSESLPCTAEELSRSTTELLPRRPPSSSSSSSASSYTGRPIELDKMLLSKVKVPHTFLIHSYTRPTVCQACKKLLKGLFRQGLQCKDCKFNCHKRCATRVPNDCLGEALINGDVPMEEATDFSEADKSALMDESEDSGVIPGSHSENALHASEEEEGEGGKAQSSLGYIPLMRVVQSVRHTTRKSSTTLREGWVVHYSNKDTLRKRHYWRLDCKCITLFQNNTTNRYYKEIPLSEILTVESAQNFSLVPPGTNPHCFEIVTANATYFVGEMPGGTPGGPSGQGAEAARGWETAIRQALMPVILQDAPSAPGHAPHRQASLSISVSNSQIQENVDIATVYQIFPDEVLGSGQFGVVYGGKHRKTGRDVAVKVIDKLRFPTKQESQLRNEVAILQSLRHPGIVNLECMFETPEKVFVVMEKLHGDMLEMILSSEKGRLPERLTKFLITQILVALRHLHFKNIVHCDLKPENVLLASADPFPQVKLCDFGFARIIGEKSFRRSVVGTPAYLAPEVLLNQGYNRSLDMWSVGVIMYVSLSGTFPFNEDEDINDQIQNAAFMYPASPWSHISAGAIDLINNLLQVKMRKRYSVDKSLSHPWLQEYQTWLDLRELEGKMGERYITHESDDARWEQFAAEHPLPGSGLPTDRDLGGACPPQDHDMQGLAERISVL
SRPK2 (human), sequence (P78362 whole entry, looked up): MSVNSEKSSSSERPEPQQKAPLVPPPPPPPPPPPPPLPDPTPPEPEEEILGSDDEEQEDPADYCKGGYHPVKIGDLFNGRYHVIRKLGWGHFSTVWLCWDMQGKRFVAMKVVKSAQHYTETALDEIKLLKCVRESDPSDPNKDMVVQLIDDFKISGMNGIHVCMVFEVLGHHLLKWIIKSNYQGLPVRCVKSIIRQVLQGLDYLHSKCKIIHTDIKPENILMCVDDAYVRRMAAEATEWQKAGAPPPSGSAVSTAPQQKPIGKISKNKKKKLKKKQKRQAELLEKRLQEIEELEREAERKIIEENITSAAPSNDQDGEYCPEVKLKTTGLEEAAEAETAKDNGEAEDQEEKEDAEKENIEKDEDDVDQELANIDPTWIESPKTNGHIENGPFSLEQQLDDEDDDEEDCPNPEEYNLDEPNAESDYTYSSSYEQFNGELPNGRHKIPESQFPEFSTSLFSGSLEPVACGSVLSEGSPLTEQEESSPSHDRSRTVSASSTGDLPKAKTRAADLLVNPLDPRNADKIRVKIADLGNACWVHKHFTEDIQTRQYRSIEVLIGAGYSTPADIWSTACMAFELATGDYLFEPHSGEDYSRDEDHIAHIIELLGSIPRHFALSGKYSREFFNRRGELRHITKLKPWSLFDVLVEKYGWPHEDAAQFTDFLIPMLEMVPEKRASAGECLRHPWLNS
TSSK2 (human), sequence (Q96PF2 whole entry, looked up): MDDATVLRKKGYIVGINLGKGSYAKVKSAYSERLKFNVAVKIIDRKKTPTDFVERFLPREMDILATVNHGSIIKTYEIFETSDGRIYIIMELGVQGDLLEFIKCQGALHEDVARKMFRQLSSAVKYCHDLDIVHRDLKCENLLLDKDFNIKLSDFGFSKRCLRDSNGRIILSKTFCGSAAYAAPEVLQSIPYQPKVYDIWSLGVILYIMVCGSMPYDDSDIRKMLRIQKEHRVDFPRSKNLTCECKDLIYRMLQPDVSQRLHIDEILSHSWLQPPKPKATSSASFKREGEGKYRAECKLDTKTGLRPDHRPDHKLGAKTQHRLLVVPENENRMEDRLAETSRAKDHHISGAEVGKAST
MST1R (human), sequence (Q04912 whole entry, looked up): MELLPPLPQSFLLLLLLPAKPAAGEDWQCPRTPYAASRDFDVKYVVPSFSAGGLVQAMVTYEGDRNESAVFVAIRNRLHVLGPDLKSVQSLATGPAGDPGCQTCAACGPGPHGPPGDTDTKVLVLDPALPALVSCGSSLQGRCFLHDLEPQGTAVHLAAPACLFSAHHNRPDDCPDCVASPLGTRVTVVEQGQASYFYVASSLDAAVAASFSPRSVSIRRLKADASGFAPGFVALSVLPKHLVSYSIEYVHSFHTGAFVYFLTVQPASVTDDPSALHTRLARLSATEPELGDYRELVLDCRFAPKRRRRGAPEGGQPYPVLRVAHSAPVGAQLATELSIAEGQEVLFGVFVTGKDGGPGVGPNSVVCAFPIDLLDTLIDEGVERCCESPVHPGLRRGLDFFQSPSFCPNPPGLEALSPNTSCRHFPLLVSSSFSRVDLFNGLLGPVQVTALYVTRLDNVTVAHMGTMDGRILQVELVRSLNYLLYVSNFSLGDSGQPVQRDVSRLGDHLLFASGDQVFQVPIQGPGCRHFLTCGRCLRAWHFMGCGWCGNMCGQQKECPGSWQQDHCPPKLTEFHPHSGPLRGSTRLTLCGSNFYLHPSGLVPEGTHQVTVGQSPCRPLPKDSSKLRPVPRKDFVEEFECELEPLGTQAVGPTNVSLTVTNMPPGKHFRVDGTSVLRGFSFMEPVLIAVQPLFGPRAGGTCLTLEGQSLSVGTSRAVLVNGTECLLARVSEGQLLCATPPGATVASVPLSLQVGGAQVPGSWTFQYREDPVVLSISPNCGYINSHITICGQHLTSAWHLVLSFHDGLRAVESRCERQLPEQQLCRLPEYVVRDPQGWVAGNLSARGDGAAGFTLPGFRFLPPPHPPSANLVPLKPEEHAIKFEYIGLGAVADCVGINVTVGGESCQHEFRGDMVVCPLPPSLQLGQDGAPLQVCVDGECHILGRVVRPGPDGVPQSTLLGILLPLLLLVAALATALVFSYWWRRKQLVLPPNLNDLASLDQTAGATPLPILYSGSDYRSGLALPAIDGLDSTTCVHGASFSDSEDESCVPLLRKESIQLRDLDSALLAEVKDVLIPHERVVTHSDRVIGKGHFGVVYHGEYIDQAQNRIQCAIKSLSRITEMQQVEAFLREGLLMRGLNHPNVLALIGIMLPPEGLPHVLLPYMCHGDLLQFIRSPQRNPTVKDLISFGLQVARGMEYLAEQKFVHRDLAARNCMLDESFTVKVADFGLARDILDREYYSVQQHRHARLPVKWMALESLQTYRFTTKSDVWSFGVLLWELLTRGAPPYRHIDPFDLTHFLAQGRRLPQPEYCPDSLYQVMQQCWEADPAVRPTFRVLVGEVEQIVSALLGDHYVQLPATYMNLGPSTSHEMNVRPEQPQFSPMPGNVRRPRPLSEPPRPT

COc1cc2ncnc(Nc3cccc(Cl)c3)c2cc1OC
residual activity (KIT (human)): 94%
residual activity (ERBB4 (human)): 35.5%
residual activity (EPHA4 (human)): 81.7%
residual activity (SGK2 (human)): 97.8%
residual activity (MAPKAPK2 (human)): 98%
residual activity (MAPK3 (human)): 96.4%
residual activity (MAP3K10 (human)): 101%
residual activity (PAK4 (human)): 76.5%
residual activity (PIM1 (human)): 91.5%
residual activity (IKBKE (human)): 101%
residual activity (HIPK4 (human)): 64.4%
residual activity (TEK (human)): 88.6%
residual activity (TAOK3 (human)): 90.4%
residual activity (WNK3 (human)): 97.8%
residual activity (MELK (human)): 81.8%
residual activity (PRKG1 (human)): 93.8% and 95.2%
residual activity (CDK3 CCNE1 (human)): 95.2%
residual activity (STK10 (human)): 24.5%
residual activity (PAK6 (human)): 81.6%
residual activity (CDK6 CCND1 (human)): 92.5%
residual activity (NUAK2 (human)): 142%
residual activity (CSNK1A1 (human)): 92.5%
residual activity (PRKACG (human)): 87.9%
residual activity (NUAK1 (human)): 75.8%
residual activity (STK39 (human)): 97%
residual activity (STK25 (human)): 101%
residual activity (PRKD2 (human)): 92.3%
residual activity (AXL (human)): 95.3%
residual activity (BRAF (human)): 96%
residual activity (CSNK2A2 (human)): 92.3%
residual activity (AURKB (human)): 74.4%
residual activity (RPS6KA3 KD1 KD2 (human)): 87.8%
residual activity (MST1R (human)): 87.8%
residual activity (TSSK2 (human)): 94.8%
residual activity (CAMKK1 (human)): 92.2%
residual activity (SRPK2 (human)): 88.2%
residual activity (MAP3K9 (human)): 82.8%
residual activity (AKT2 (human)): 84.1%
residual activity (CLK2 (human)): 89.6%
residual activity (MAPK11 (human)): 97.5%
residual activity (LRRK2 (human)): 60.9%

CC(C)N(CCC(=O)c1ccc2ccccc2c1)Cc1ccccc1
residual activity (KIT (human)): 86.5%
residual activity (ERBB4 (human)): 91.7%
residual activity (EPHA4 (human)): 94.5%
residual activity (SGK2 (human)): 101%
residual activity (MAPKAPK2 (human)): 99%
residual activity (MAPK3 (human)): 98.5%
residual activity (MAP3K10 (human)): 92.6%
residual activity (PAK4 (human)): 90.4%
residual activity (PIM1 (human)): 100%
residual activity (IKBKE (human)): 93%
residual activity (HIPK4 (human)): 107%
residual activity (TEK (human)): 96.3%
residual activity (TAOK3 (human)): 87.8%
residual activity (WNK3 (human)): 97%
residual activity (MELK (human)): 99.4%
residual activity (PRKG1 (human)): 101% and 102%
residual activity (CDK3 CCNE1 (human)): 91.4%
residual activity (STK10 (human)): 93.6%
residual activity (PAK6 (human)): 116%
residual activity (CDK6 CCND1 (human)): 96.8%
residual activity (NUAK2 (human)): 85.4%
residual activity (CSNK1A1 (human)): 88.4%
residual activity (PRKACG (human)): 107%
residual activity (NUAK1 (human)): 97.1%
residual activity (STK39 (human)): 88.3%
residual activity (STK25 (human)): 94%
residual activity (PRKD2 (human)): 98.5%
residual activity (AXL (human)): 108%
residual activity (BRAF (human)): 95.6%
residual activity (CSNK2A2 (human)): 95.4%
residual activity (AURKB (human)): 101%
residual activity (RPS6KA3 KD1 KD2 (human)): 95.1%
residual activity (MST1R (human)): 92.6%
residual activity (TSSK2 (human)): 100%
residual activity (CAMKK1 (human)): 104%
residual activity (SRPK2 (human)): 99.1%
residual activity (MAP3K9 (human)): 104%
residual activity (AKT2 (human)): 96.5%
residual activity (CLK2 (human)): 96.3%
residual activity (MAPK11 (human)): 108%
residual activity (LRRK2 (human)): 98.2%

CCC(=O)Nc1ccc2ncnc(Nc3cccc(Br)c3)c2c1
residual activity (KIT (human)): 90.4%
residual activity (ERBB4 (human)): 82.3%
residual activity (EPHA4 (human)): 94.3%
residual activity (SGK2 (human)): 96.2%
residual activity (MAPKAPK2 (human)): 87.1%
residual activity (MAPK3 (human)): 101%
residual activity (MAP3K10 (human)): 91.2%
residual activity (PAK4 (human)): 105%
residual activity (PIM1 (human)): 85.3%
residual activity (IKBKE (human)): 94.9%
residual activity (HIPK4 (human)): 87.8%
residual activity (TEK (human)): 91.2%
residual activity (TAOK3 (human)): 89.2%
residual activity (WNK3 (human)): 99.3%
residual activity (MELK (human)): 93.4%
residual activity (PRKG1 (human)): 101% and 110%
residual activity (CDK3 CCNE1 (human)): 86.5%
residual activity (STK10 (human)): 68.7%
residual activity (PAK6 (human)): 101%
residual activity (CDK6 CCND1 (human)): 92.5%
residual activity (NUAK2 (human)): 77.4%
residual activity (CSNK1A1 (human)): 97%
residual activity (PRKACG (human)): 95.5%
residual activity (NUAK1 (human)): 87.3%
residual activity (STK39 (human)): 96.1%
residual activity (STK25 (human)): 102%
residual activity (PRKD2 (human)): 85.1%
residual activity (AXL (human)): 126%
residual activity (BRAF (human)): 93%
residual activity (CSNK2A2 (human)): 61.4%
residual activity (AURKB (human)): 95.4%
residual activity (RPS6KA3 KD1 KD2 (human)): 95%
residual activity (MST1R (human)): 97.2%
residual activity (TSSK2 (human)): 82.8%
residual activity (CAMKK1 (human)): 99.8%
residual activity (SRPK2 (human)): 88.6%
residual activity (MAP3K9 (human)): 92.7%
residual activity (AKT2 (human)): 102%
residual activity (CLK2 (human)): 101%
residual activity (MAPK11 (human)): 92.9%
residual activity (LRRK2 (human)): 92.4%
